Experimental data published in PubChem BioAssay AID206 (DTP/NCI, 2004).
Where “and” joins values, the source holds several entries; their conditions need not be identical. Equal entries are not always repeated. Inconclusive results are not listed.

System: nude mice, HT29 intrarenal xenograft, tumor weight T/C
Experiment: NCI In Vivo Anticancer Drug Screen. Data for tumor model HT29;CX-1 Human Adenocarcinoma (MER+) (intrarenal inoculation) in NU/NU Swiss (nude) mice
Settings: endpoint: mean tumor weight change, higher = larger tumour
Procedure, shortened: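 Mice with transplanted tumors are dosed with compound while controls get vehicle only. Survival or tumor burden is then assessed per group, and the treated value is expressed relative to control.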

[1] = dose: 150.0 mg/kg/injection, schedule: Q04DX004 (sc), vehicle: Klucel (hydroxypropylcellulose) (HPC)
[2] = dose: 600.0 mg/kg/injection, schedule: Q04DX004 (sc), vehicle: Klucel (hydroxypropylcellulose) (HPC)
[3] = dose: 300.0 mg/kg/injection, schedule: Q04DX004 (sc), vehicle: Klucel (hydroxypropylcellulose) (HPC)
[4] = dose: 1200.0 mg/kg/injection, schedule: Q04DX004 (sc), vehicle: Klucel (hydroxypropylcellulose) (HPC)
[5] = dose: 4.0 mg/kg/injection, schedule: Q04DX004 (sc), vehicle: water
[6] = dose: 150.0 mg/kg/injection, schedule: Q04DX004 (sc), vehicle: saline with Tween-80
[7] = dose: 100.0 mg/kg/injection, schedule: Q01DX010 (sc), vehicle: saline
[8] = dose: 200.0 mg/kg/injection, schedule: Q01DX010 (sc), vehicle: saline

## Cc1cc(N(CCOS(C)(=O)=O)CCOS(C)(=O)=O)ccc1C=Nc1ccc(-c2nc(Cc3ccccc3)sc2C)cc1
dose: 50.0 mg/kg/injection, schedule: Q01DX010 (sc), vehicle: Klucel (hydroxypropylcellulose) (HPC)
  T/C: 92 % of control
dose: 100.0 mg/kg/injection, schedule: Q01DX010 (sc), vehicle: Klucel (hydroxypropylcellulose) (HPC)
  T/C: 80 % of control
dose: 200.0 mg/kg/injection, schedule: Q01DX010 (sc), vehicle: Klucel (hydroxypropylcellulose) (HPC)
  T/C: 117 % of control

## OC1CCCC2CCC[N-]C12.OC1CCCC2CCC[N-]C12.[Mn+2] (configuration not stated)
[1]
  T/C: 114 % of control
[2]
  T/C: 124 % of control

## CN(C)N=Nc1cccc(C(N)=O)c1
dose: 50.0 mg/kg/injection, schedule: Q04DX004 (sc), vehicle: Klucel (hydroxypropylcellulose) (HPC)
  T/C: 92 % of control and 116 % of control

## [O-][n+]1c(CN2CCCCC2)nc2cccc3c2c1-c1ccccc1-3
[1]
  T/C: 274 % of control
[3]
  T/C: 150 % of control
[2]
  T/C: 239 % of control
[4]
  T/C: 303 % of control

## COC(=O)C(N)Cc1ccc(O)c(O)c1 (configuration not stated)
dose: 225.0 mg/kg/injection, schedule: Q04DX004 (sc), vehicle: saline
  T/C: 74 % of control
dose: 450.0 mg/kg/injection, schedule: Q04DX004 (sc), vehicle: saline
  T/C: 104 % of control
dose: 900.0 mg/kg/injection, schedule: Q04DX004 (sc), vehicle: saline
  T/C: 77 % of control
dose: 1800.0 mg/kg/injection, schedule: Q04DX004 (sc), vehicle: saline
  T/C: 55 % of control

## CC[C@@]1(O)C[C@H](OC2CC(N(C)C)C(OC3CC(O)C(OC4CCC(=O)C(C)O4)C(C)O3)C(C)O2)c2c(cc3c(c2O)C(=O)c2c(O)cccc2C3=O)[C@H]1C(=O)OC (some centres not stated)
dose: 0.5 mg/kg/injection, schedule: Q01DX010 (ip), vehicle: water
  T/C: 35 % of control
dose: 2.0 mg/kg/injection, schedule: Q04DX004 (ip), vehicle: water
  T/C: 114 % of control
dose: 4.0 mg/kg/injection, schedule: Q04DX004 (ip), vehicle: water
  T/C: 61 % of control
[5]
  T/C: 25 % of control
dose: 8.0 mg/kg/injection, schedule: Q04DX004 (ip), vehicle: water
  T/C: 37 % of control
dose: 8.0 mg/kg/injection, schedule: Q04DX004 (sc), vehicle: water
  T/C: 4 % of control

## C[CH2][Ge]([CH2]C)[CH2]C.C[CH2][Ge]([CH2]C)[CH2]C.C[CH2][Ge]([CH2]C)[O][Ge]([CH2]C)[CH2]C
[6]
  T/C: 112 % of control

## CC(=O)OCC1OC(OC(C)=O)C(NC(=O)N(CCCl)N=O)C(OC(C)=O)C1OC(C)=O (configuration not stated)
dose: 3.0 mg/kg/injection, schedule: Q04DX004 (sc), vehicle: Klucel (hydroxypropylcellulose) (HPC)
  T/C: 30 % of control
dose: 6.0 mg/kg/injection, schedule: Q04DX004 (sc), vehicle: Klucel (hydroxypropylcellulose) (HPC)
  T/C: 40 % of control
dose: 12.0 mg/kg/injection, schedule: Q04DX004 (sc), vehicle: Klucel (hydroxypropylcellulose) (HPC)
  T/C: 60 % of control
dose: 24.0 mg/kg/injection, schedule: Q04DX004 (sc), vehicle: Klucel (hydroxypropylcellulose) (HPC)
  T/C: 96 % of control

## Cc1cc(SCC(=O)c2ccc(Br)cc2)cc(C)[o+]1
[7]
  T/C: 41 % of control
[8]
  T/C: 76 % of control

## O=C1CC2(C(=O)N1CN1CCCCC1)c1ccccc1-c1ccccc12
dose: 100.0 mg/kg/injection, schedule: Q04DX004 (sc), vehicle: Klucel (hydroxypropylcellulose) (HPC)
  T/C: 43 % of control
dose: 400.0 mg/kg/injection, schedule: Q04DX004 (sc), vehicle: Klucel (hydroxypropylcellulose) (HPC)
  T/C: 69 % of control
dose: 800.0 mg/kg/injection, schedule: Q04DX004 (sc), vehicle: Klucel (hydroxypropylcellulose) (HPC)
  T/C: 70 % of control

## CCOC(=O)C(CC(C)C)NC(=O)C(N)Cc1ccc(N(CCCl)CCCl)cc1 (configuration not stated)
dose: 7.5 mg/kg/injection, schedule: Q04DX004 (sc), vehicle: water
  T/C: 81 % of control
dose: 15.0 mg/kg/injection, schedule: Q04DX004 (sc), vehicle: water
  T/C: 105 % of control and 118 % of control
dose: 30.0 mg/kg/injection, schedule: Q04DX004 (sc), vehicle: water
  T/C: 82 % of control and 86 % of control
dose: 60.0 mg/kg/injection, schedule: Q04DX004 (sc), vehicle: water
  T/C: 7 % of control

## Nc1ncnc2c(C3OC(CO)C(O)C3O)[nH]nc12 (configuration not stated)
dose: 75.0 mg/kg/injection, schedule: Q04DX004 (sc), vehicle: suspension in saline
  T/C: 39 % of control

## COc1ccc(-c2cc(C(=O)Nc3cc(C(F)(F)F)cc(C(F)(F)F)c3)c3ccccc3n2)cc1
dose: 300.0 mg/kg/injection, schedule: Q04DX004 (ip), vehicle: DMSO
  T/C: 115 % of control
dose: 600.0 mg/kg/injection, schedule: Q04DX004 (ip), vehicle: DMSO
  T/C: 50 % of control

## CCC1=C[C@H]2CN(CCc3c([nH]c4ccccc34)[C@@](C(=O)OC)(c3cc4c(cc3OC)N(C)[C@H]3[C@@](O)(C(=O)NC)[C@H](OC(C)=O)[C@]5(CC)C=CCN6CC[C@]43[C@@H]65)C2)C1
dose: 1.0 mg/kg/injection, schedule: Q04DX004 (sc), vehicle: water
  T/C: 106 % of control
dose: 2.0 mg/kg/injection, schedule: Q04DX004 (sc), vehicle: water
  T/C: 28 % of control
[5]
  T/C: -20 % of control

## CC(=O)[O][Pb]([O]C(C)=O)([c]1ccccc1)[c]1ccccc1
dose: 250.0 mg/kg/injection, schedule: Q04DX004 (sc), vehicle: Klucel (hydroxypropylcellulose) (HPC)
  T/C: 120 % of control
dose: 500.0 mg/kg/injection, schedule: Q04DX004 (sc), vehicle: Klucel (hydroxypropylcellulose) (HPC)
  T/C: 64 % of control
dose: 1000.0 mg/kg/injection, schedule: Q04DX004 (sc), vehicle: Klucel (hydroxypropylcellulose) (HPC)
  T/C: 44 % of control
dose: 2000.0 mg/kg/injection, schedule: Q04DX004 (sc), vehicle: Klucel (hydroxypropylcellulose) (HPC)
  T/C: 118 % of control

## Cc1ccc(C2NC(=S)N3C(c4ccc(C)cc4)NC(=S)N23)cc1 (configuration not stated)
[3]
  T/C: 75 % of control
[2]
  T/C: 80 % of control
[4]
  T/C: 69 % of control
dose: 2400.0 mg/kg/injection, schedule: Q04DX004 (sc), vehicle: Klucel (hydroxypropylcellulose) (HPC)
  T/C: 75 % of control

## COc1cc2cc3cc4cc(OC)c(OC)cc4c(C)[n+]3cc2cc1OC (tested in a mixture with another compound)
dose: 200.0 mg/kg/injection, schedule: Q04DX004 (sc), vehicle: suspension in saline
  T/C: 118 % of control
dose: 400.0 mg/kg/injection, schedule: Q04DX004 (sc), vehicle: suspension in saline
  T/C: 80 % of control
dose: 800.0 mg/kg/injection, schedule: Q04DX004 (sc), vehicle: suspension in saline
  T/C: 98 % of control

## CC1(O)CC23CC(O)C4(O)C(CC(O)C4(C)C)C(C)(O)C2CCC1C3O (configuration not stated)
dose: 0.25 mg/kg/injection, schedule: Q04DX004 (sc), vehicle: Klucel (hydroxypropylcellulose) (HPC)
  T/C: 46 % of control
dose: 0.5 mg/kg/injection, schedule: Q04DX004 (sc), vehicle: Klucel (hydroxypropylcellulose) (HPC)
  T/C: 37 % of control
dose: 1.0 mg/kg/injection, schedule: Q04DX004 (sc), vehicle: Klucel (hydroxypropylcellulose) (HPC)
  T/C: 82 % of control

## CC1(C)CC23C4COC(=O)C2CCC1C3CC4=O (configuration not stated)
dose: 25.0 mg/kg/injection, schedule: Q04DX004 (sc), vehicle: DMSO
  T/C: 56 % of control
dose: 50.0 mg/kg/injection, schedule: Q04DX004 (sc), vehicle: DMSO
  T/C: 106 % of control
dose: 100.0 mg/kg/injection, schedule: Q04DX004 (sc), vehicle: DMSO
  T/C: 103 % of control
dose: 300.0 mg/kg/injection, schedule: Q04DX004 (sc), vehicle: DMSO
  T/C: 56 % of control
dose: 600.0 mg/kg/injection, schedule: Q04DX004 (sc), vehicle: DMSO
  T/C: 64 % of control
dose: 1200.0 mg/kg/injection, schedule: Q04DX004 (sc), vehicle: DMSO
  T/C: 88 % of control
dose: 2400.0 mg/kg/injection, schedule: Q04DX004 (sc), vehicle: DMSO
  T/C: 114 % of control

## C/C=C/c1cc2n(c1)C(=O)c1cc(OC3OC(C)C(NC)C(C)(O)C3O)c(C)c(O)c1NC2O (configuration not stated)
dose: 12.5 micrograms/kg/injection, schedule: Q04DX004 (sc), vehicle: saline
  T/C: 69 % of control
dose: 25.0 micrograms/kg/injection, schedule: Q04DX004 (sc), vehicle: saline
  T/C: 101 % of control
dose: 50.0 micrograms/kg/injection, schedule: Q04DX004 (sc), vehicle: saline
  T/C: 83 % of control
dose: 100.0 micrograms/kg/injection, schedule: Q04DX004 (sc), vehicle: saline
  T/C: 94 % of control

## CC(/C=C/c1ccccc1)=Nc1ccccc1
dose: 75.0 mg/kg/injection, schedule: Q04DX004 (sc), vehicle: saline with Tween-80
  T/C: 58 % of control
[6]
  T/C: 98 % of control
dose: 300.0 mg/kg/injection, schedule: Q04DX004 (sc), vehicle: saline with Tween-80
  T/C: 50 % of control
dose: 600.0 mg/kg/injection, schedule: Q04DX004 (sc), vehicle: saline with Tween-80
  T/C: 63 % of control

## CCOC(=O)c1c[nH]c2oc(/C=N/N3CC(CN4CCOCC4)OC3=O)cc2c1=O (configuration not stated)
dose: 50.0 mg/kg/injection, schedule: Q01DX010 (sc), vehicle: saline
  T/C: 69 % of control
[7]
  T/C: 124 % of control
[8]
  T/C: 86 % of control
